Two molecules from US12472224B2, “Ready-to-use bivalirudin compositions” (MAIA Pharmaceuticals, Inc., priority 2019, dated 2025) can be followed below.

The test system of one series is Whole human blood. Put plainly: Hemolysis study. The class given is cell-based. Here is the method: Briefly, human whole blood was collected from a single donor (K2EDTA anticoagulant). The donor blood was analyzed for hemoglobin content in triplicate using an Advia 120 hematology analyzer. The dynamic mixing of drug infusate in human whole blood was simulated in this in vitro study by incubating the diluted test, reference and placebo items at a blood:formulation ratio of 1:0.75, corresponding to a final bivalirudin concentration of 2.14 mg/mL. Blood was mixed with either bivalirudin for injection as described herein, Angiomax®, a bivalirudin placebo, or 0.9% saline. The mixture as incubated at 37° C. (±5° C.) for 30 minutes. Negative controls containing only blood (whole blood control) or blood mixed with 0.9% saline at a blood:saline ratio of 1:0.75 (0.9% NaCl control) were also prepared. A positive control containing blood mixed 1:1 with 1% saponin was also prepared. All control tubes were incubated at 37° C. (±5° C.) for 30 minutes. […] During the incubation tubes containing the test and reference item mixed with saline were prepared to check if the test or reference item interfered with the absorbance readings. […] The percent hemolysis of each sample was calculated based on the hemoglobin content of the supernatant, expressed as a percentage of hemoglobin content of the donor sample, after correcting for dilution and interference from the sample, if any.

The nature of series [1]: Toxicokinetics of bivalirudin in satellite animals of the rat study (plasma concentrations). The note with it: both sexes, Sprague-Dawley, in vivo, iv, 24 hours after termination of dosing, 7 out of 23 samples, all others below 50 ng/mL, read-out: plasma bivalirudin concentration at the 24-hour timepoint. Here is the method:
The infusion rate was 2.5 mL/kg/h for all groups. A separate set of satellite animals (6/sex/group) were administered the same set of materials and used for evaluating the toxicokinetics (TK) of bivalirudin at 5 minutes and 24 hours after termination of dosing (3 animals/sex/group/timepoint). See Table 16b for group allocation. All animals were sacrificed on Day 16, one day following the end of the 14-day infusion.
Mean plasma concentrations of bivalirudin at C5 were similar in males treated with the high-dose (250 mg/kg/day) of MAIA Bivalirudin Injection or Sandoz Bivalirudin, and only slightly lower (approximately 20% lower) in the female treated with MAIA Bivalirudin than in the females treated with Sandoz Bivalirudin. However, it must be noted that data are available from just one female for the MAIA product, due to premature deaths or inability to collect blood.

Consider saponin, for which, in the series on Whole human blood, the “% Hemolysis” value stood at 100.0 ± 0.8% and the “% hemolysis (positive control)” value was 100%.

On to `CC[C@H](C)[C@H](NC(=O)[C@H](CCC(=O)O)NC(=O)[C@H](CCC(=O)O)NC(=O)[C@H](Cc1ccccc1)NC(=O)[C@H](CC(=O)O)NC(=O)CNC(=O)[C@H](CC(N)=O)NC(=O)CNC(=O)CNC(=O)CNC(=O)CNC(=O)[C@@H]1CCCN1C(=O)[C@H](CCCNC(=N)N)NC(=O)[C@@H]1CCCN1C(=O)[C@H](N)Cc1ccccc1)C(=O)N1CCC[C@H]1C(=O)N[C@@H](CCC(=O)O)C(=O)N[C@@H](CCC(=O)O)C(=O)N[C@@H](Cc1ccc(O)cc1)C(=O)N[C@@H](CC(C)C)C(=O)O` [bivalirudin], for which the level at 24 h in series [1] fell in the range of 50.5 to 159 ng/mL.
